Active and inactive are the calls of the source. No cut-off for these calls is given here.
What was measured:
B16-F10 [1] = test: Antiproliferative activity against mouse B16-F10 cells incubated for 48 hrs by MTT assay; type: functional, cell-based; conditions: B16-F10, 48 h
NCI-H23 = test: Antiproliferative activity against human NCI-H23 cells incubated for 48 hrs by MTT assay; type: functional, cell-based; conditions: NCI-H23, 48 h
HCT-116 = test: Antiproliferative activity against human HCT-116 cells incubated for 48 hrs by MTT assay; type: functional, cell-based; conditions: HCT-116, 48 h
HeLa = test: Antiproliferative activity against human HeLa cells incubated for 48 hrs by MTT assay; type: functional, cell-based
MCF7 = test: Antiproliferative activity against human MCF7 cells incubated for 48 hrs by MTT assay; type: functional, cell-based; conditions: MCF7, 48 h
HepG2 = test: Antiproliferative activity against human HepG2 cells incubated for 48 hrs by MTT assay; type: functional, cell-based; conditions: HepG2, 48 h
B16-F10 [2] = test: Antitumor activity against mouse B16-F10 cells xenografted in C57 mouse assessed as suppression of tumor growth at 7 mg/kg, ip qd for 12 days; type: functional, organism-based; conditions: time 12.0 day
B16-F10 [3] = test: Antitumor activity against mouse B16-F10 cells xenografted in C57 mouse at 7 mg/kg, ip qd for 12 days relative to control; type: functional; conditions: B16-F10, 288 h, time 12 day, read-out: TGI
[4] = Toxicity in C57 mouse xenografted with mouse B16-F10 cells assessed as body weight change at 7 mg/kg, ip qd for 12 days; type: organism-based; conditions: in vivo, 288 h, time 12 day

| Structure (SMILES) | IC50 (B16-F10 [1]) | IC50 (NCI-H23) | IC50 (HCT-116) | IC50 (HeLa) | IC50 (MCF7) | IC50 (HepG2) | Activity (B16-F10 [2]) | inhibition in vivo at 7 mg/kg (B16-F10 [3]) | Activity [4] |
| --- | --- | --- | --- | --- | --- | --- | --- | --- | --- |
| Cc1nc(N(C)c2ccc(C(F)(F)F)cc2)c2sccc2n1 | > 100 nM | > 100 nM | > 100 nM | > 100 nM | > 100 nM | > 100 nM |  |  |  |
| COc1ccc(N(C)c2nc(C)nc3ccsc23)cc1C(F)(F)F | > 100 nM | > 100 nM | > 100 nM | > 100 nM | > 100 nM | > 100 nM |  |  |  |
| COc1cc(N(C)c2nc(C)nc3ccsc23)cc(OC)c1OC | > 100 nM | > 100 nM | > 100 nM | > 100 nM | > 100 nM | > 100 nM |  |  |  |
| COc1cc(OC)cc(N(C)c2nc(C)nc3ccsc23)c1 | > 100 nM | > 100 nM | > 100 nM | > 100 nM | > 100 nM | > 100 nM |  |  |  |
| COc1ccc(N(C)c2nc(C)nc3ccsc23)cc1 | 30 nM | 9.37 nM | 3.12 nM | 18.8 nM | 1.4 nM | 18.8 nM |  |  |  |
| Cc1nc(N(C)c2cc(Cl)cc(Cl)c2)c2sccc2n1 | > 100 nM | > 100 nM | > 100 nM | > 100 nM | > 100 nM | > 100 nM |  |  |  |
| Cc1nc(N(C)c2cccc(C(F)(F)F)c2)c2sccc2n1 | > 100 nM | > 100 nM | > 100 nM | > 100 nM | > 100 nM | > 100 nM |  |  |  |
| COc1ccccc1N(C)c1nc(C)nc2ccsc12 | > 100 nM | > 100 nM | > 100 nM | > 100 nM | > 100 nM | > 100 nM |  |  |  |
| Cc1nc(N(C)c2ccccc2C)c2sccc2n1 | > 100 nM | > 100 nM | > 100 nM | > 100 nM | > 100 nM | > 100 nM |  |  |  |
| COc1ccc(N(C)c2nc(C)nc3ccsc23)cc1[N+](=O)[O-] | 6.25 nM | 18.8 nM | 1.56 nM | 20 nM | 4.68 nM | 18.5 nM |  |  |  |
| COc1cc2c(c(OC)c1OC)-c1ccc(OC)c(=O)cc1[C@@H](NC(C)=O)CC2 [COLCHICINE] | 18.8 nM | 3.1 nM | 9.37 nM | 9.35 nM |  | 5 nM |  |  |  |
| COc1ccc(N(C)c2nc(C)nc3ccsc23)cc1OC | > 100 nM | > 100 nM | > 100 nM | > 100 nM | > 100 nM | > 100 nM |  |  |  |
| Cc1c(COc2cc(OCc3cccc(C#N)c3)c(CNC(C)(C)C(=O)O)cc2Cl)cccc1-c1ccccc1 |  |  |  |  |  |  | Active | 43.9% | Non-Toxic |
| CN(c1ccc2c(ccn2C)c1)c1ncnc2ccsc12 | > 100 nM | > 100 nM | > 100 nM | > 100 nM | > 100 nM | > 100 nM |  |  |  |
| COc1cccc(N(C)c2nc(C)nc3ccsc23)c1 | > 100 nM | > 100 nM | > 100 nM | > 100 nM | > 100 nM | > 100 nM |  |  |  |
| Cc1nc(N(C)c2ccc(OC(C)C)cc2)c2sccc2n1 | > 100 nM | > 100 nM | > 100 nM | > 100 nM | > 100 nM | > 100 nM |  |  |  |
| Cc1nc(N(C)c2cccc(OC(F)(F)F)c2)c2sccc2n1 | > 100 nM | > 100 nM | > 100 nM | > 100 nM | > 100 nM | > 100 nM |  |  |  |
| Cc1cccc(N(C)c2nc(C)nc3ccsc23)c1 | > 100 nM | > 100 nM | > 100 nM | > 100 nM | > 100 nM | > 100 nM |  |  |  |
| Cc1ccc(N(C)c2nc(C)nc3ccsc23)cc1 | > 100 nM | > 100 nM | > 100 nM | > 100 nM | > 100 nM | > 100 nM |  |  |  |
| Cc1nc(N(C)c2cccc3ccccc23)c2sccc2n1 | > 100 nM | > 100 nM | > 100 nM | > 100 nM | > 100 nM | > 100 nM |  |  |  |
| Cc1nc(N(C)c2ccc(C(C)C)cc2)c2sccc2n1 | > 100 nM | > 100 nM | > 100 nM | > 100 nM | > 100 nM | > 100 nM |  |  |  |
| Cc1nc(N(C)c2ccc3ccccc3c2)c2sccc2n1 | 15.6 nM | 18.8 nM | 0.58 nM | 9 nM | 20 nM | 18 nM |  |  |  |
| Cc1nc(N(C)c2ccc(Cl)c(Cl)c2)c2sccc2n1 | > 100 nM | > 100 nM | > 100 nM | > 100 nM | > 100 nM | > 100 nM |  |  |  |

Source: ChEMBL document CHEMBL5614416, “Discovery of novel thiophene[3,2-d]pyrimidine-based tubulin inhibitors with enhanced antitumor efficacy for combined use with anti-pd-l1 immunotherapy in melanoma” (Eur J Med Chem, 2024)
